The target in this assay is human PAD4 (hPAD4) (Homo sapiens, UniProt Q9UM07). Briefly: RFMS human PAD4 functional assay (rapid-fire mass spectrum). To be noted: 5 nM hPAD4 enzyme, 250 μM BAEE, 50 μM Calcium; 30 min preincubation, 90 min reaction at 37° C. It counts as biochemical. Summed up: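 PAD4 (10 nM) preincubated 30 min with compound (top final 50 μM), then BAEE substrate added in pH 7.5 HEPES buffer with DTT, 50 μM calcium, TPEN; 90 min at 37° C. After TCA quench, citrulline derivatized with phenyl glyoxal (4 mM final, 30 min, 37° C) and quantified by RapidFire MS against internal standard.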
human PAD4 (hPAD4), sequence (Q9UM07 whole entry): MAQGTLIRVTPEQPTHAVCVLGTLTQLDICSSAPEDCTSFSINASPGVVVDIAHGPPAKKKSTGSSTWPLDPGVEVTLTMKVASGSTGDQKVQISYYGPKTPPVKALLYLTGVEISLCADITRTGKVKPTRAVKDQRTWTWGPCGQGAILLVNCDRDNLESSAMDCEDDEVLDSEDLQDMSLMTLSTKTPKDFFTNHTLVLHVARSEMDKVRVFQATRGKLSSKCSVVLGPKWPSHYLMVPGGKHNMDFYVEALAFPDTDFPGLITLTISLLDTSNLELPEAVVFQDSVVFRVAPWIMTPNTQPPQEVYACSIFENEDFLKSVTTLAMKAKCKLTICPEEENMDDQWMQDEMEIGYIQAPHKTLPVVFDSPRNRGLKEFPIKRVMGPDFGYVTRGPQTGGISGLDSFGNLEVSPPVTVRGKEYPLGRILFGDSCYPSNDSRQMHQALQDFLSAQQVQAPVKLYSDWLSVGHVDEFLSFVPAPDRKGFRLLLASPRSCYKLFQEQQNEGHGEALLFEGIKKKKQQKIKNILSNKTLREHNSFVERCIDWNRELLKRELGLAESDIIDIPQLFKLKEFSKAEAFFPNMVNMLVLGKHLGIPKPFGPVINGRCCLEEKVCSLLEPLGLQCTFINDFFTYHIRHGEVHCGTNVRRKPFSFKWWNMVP

The term IC50 denotes the midpoint of a concentration-inhibition curve. For `COc1cc(C(=O)N2CC3CCC2[C@@H]3N)cc2nc(-c3cc4cccnc4n3CC3CC3)n(CC3CN(C(=O)c4ccc(F)cc4)C3)c12` (stereo partly drawn) [Example 447, (7R)-2-{2-[1-(cyclopropylmethyl)-1H-pyrrolo[2,3-b]pyridin-2-yl]-1-{[1-(4-fluorobenzoyl)azetidin-3-yl]methyl}-7-methoxy-1H-1,3-benzodiazole-5-carbonyl}-2-azabicyclo[2.2.1]heptan-7-amine], the IC50 turned out to be 0.043 µM.

On to `CCc1ccccc1-c1nc2cc(C(=O)N3C[C@H]4CC[C@@H]3[C@@H]4N)cc(OC)c2n1CC1CN(c2ccnc(C#N)n2)C1` [Example 319, 4-[3-({5-[(1R,4R,7R)-7-amino-2-azabicyclo[2.2.1]heptane-2-carbonyl]-2-(2-ethylphenyl)-7-methoxy-1H-1,3-benzodiazol-1-yl}methyl)azetidin-1-yl]pyrimidine-2-carbonitrile], for which the concentration for half-maximal inhibition (IC50) is 1.3 µM.

Take `COc1cc(C(=O)N2C[C@H]3CC[C@@H]2[C@@H]3N)cc2nc(-c3cc4ccccc4n3CC3CC3)n(CCC3CCS(=O)(=O)CC3)c12` [Example 245, ((1R,4R,7R)-7-amino-2-azabicyclo[2.2.1]heptan-2-yl)(2-(1-(cyclopropylmethyl)-1H-indol-2-yl)-1-(2-(1,1-dioxidotetrahydro-2H-thiopyran-4-yl)ethyl)-7-methoxy-1H-benzo[d]imidazol-5-yl)methanone]: the 50% inhibitory concentration (IC50) was 0.02 µM.

With `COc1cc(C(=O)N2C[C@H]3CC[C@@H]2[C@@H]3N)cc2nc(-c3cc4cccnc4n3CC3CC3)n(C3CN(C(=O)c4ccnc(F)c4)C3)c12` [Example 193, (1R,4R,7R)-2-{2-[1-(cyclopropylmethyl)-1H-pyrrolo[2,3-b]pyridin-2-yl]-1-[1-(2-fluoropyridine-4-carbonyl)azetidin-3-yl]-7-methoxy-1H-1,3-benzodiazole-5-carbonyl}-2-azabicyclo[2.2.1]heptan-7-amine], the IC50 was 2.72 µM.

Turning to `COc1cc(C(=O)N2C[C@H](N)C[C@@H](F)C2)cc2nc(-c3cc4ccccc4n3CC3CC3)n(CC3CN(C(=O)c4cc(C#N)ccc4F)C3)c12` [Example 152, 3-[3-({5-[(3R,5R)-3-amino-5-fluoropiperidine-1-carbonyl]-2-[1-(cyclopropylmethyl)-1H-indol-2-yl]-7-methoxy-1H-1,3-benzodiazol-1-yl}methyl)azetidine-1-carbonyl]-4-fluorobenzonitrile], the IC50 was found to be 0.021 µM.

Consider `N[C@@H]1C2CCC1N(C(=O)c1ccc3c(c1)nc(-c1cc4cccnc4n1CC1CC1)n3CC1CN(C(=O)c3ccccc3)C1)C2` (stereo partly drawn) [Example 465, (7R)-2-{1-[(1-benozylazetidin-3-yl)methyl]-2-[1-(cyclopropylmethyl)-1H-pyrrolo[2,3-b]pyridin-2-yl]-1H-1,3-benzodiazole-5-carbonyl}-2-azabicyclo[2.2.1]heptan-7-amine], for which the IC50 came out at 0.083 µM.

On to `COc1cc(C(=O)N2C[C@H](N)C[C@@H](F)C2)cc2nc(-c3cc4cccnc4n3CC3CC3)n(Cc3cnn(-c4cccc(Cl)n4)c3)c12` [Example 389, (3R,5R)-1-(1-{[1-(6-chloropyridin-2-yl)-1H-pyrazol-4-yl]methyl}-2-[1-(cyclopropylmethyl)-1H-pyrrolo[2,3-b]pyridin-2-yl]-7-methoxy-1H-1,3-benzodiazole-5-carbonyl)-5-fluoropiperidin-3-amine], for which the IC50 stood at 0.043 µM.

With `COc1cc(C(=O)N2CC3CCC2[C@@H]3N)cc2nc(-c3cc4cccnc4n3CC3CC3)n(CC3CN(C(=O)c4cccc(F)c4)C3)c12` (stereo partly drawn) [Example 464, (7R)-2-{2-[1-(cyclopropylmethyl)-1H-pyrrolo[2,3-b]pyridin-2-yl]-1-{[1-(3-fluorobenzoyl)azetidin-3-yl]methyl}-7-methoxy-1H-1,3-benzodiazole-5-carbonyl}-2-azabicyclo[2.2.1]heptan-7-amine], the IC50 amounted to 0.076 µM.

As to `COc1cc(C(=O)N2C[C@H](N)C[C@@H](F)C2)cc2nc(-c3cc4ccccc4n3CC3CC3)n(Cc3cnn(-c4ccccc4)c3)c12` [Example 261, (3R,5R)-1-{2-[1-(cyclopropylmethyl)-1H-indol-2-yl]-7-methoxy-1-[(1-phenyl-1H-pyrazol-4-yl)methyl]-1H-1,3-benzodiazole-5-carbonyl}-5-fluoropiperidin-3-amine], the concentration for half-maximal inhibition (IC50) came out at 0.049 µM.

Turning to `COc1ccc2cc(-c3nc4cc(C(=O)N5C[C@H]6CC[C@@H]5[C@@H]6N)cc(OC)c4n3CC3CN(c4cccnc4C#N)C3)n(CC3CC3)c2n1` [Example 35, 3-[3-({5-[(1R,4R,7R)-7-amino-2-azabicyclo[2.2.1]heptane-2-carbonyl]-2-[1-(cyclopropylmethyl)-6-methoxy-1H-pyrrolo[2,3-b]pyridin-2-yl]-7-methoxy-1H-1,3-benzodiazol-1-yl}methyl)azetidin-1-yl]pyridine-2-carbonitrile], the half-inhibitory concentration (IC50) was found to be 0.09 µM.

Take `CCn1cc(Cn2c(-c3cc4ccccc4n3CC3CC3)nc3cc(C(=O)N4CC5CCC4[C@@H]5N)cc(OC)c32)cn1` (stereo partly drawn) [Example 481, (7R)-2-{2-[1-(cyclopropylmethyl)-1H-indol-2-yl]-1-[(1-ethyl-1H-pyrazol-4-yl)methyl]-7-methoxy-1H-1,3-benzodiazole-5-carbonyl}-2-azabicyclo[2.2.1]heptan-7-amine]: the 50% inhibitory concentration (IC50) was 0.02 µM.

As to `COc1cccc(-n2cc(Cn3c(-c4cc5cccnc5n4CC4CC4)nc4cc(C(=O)N5C[C@H](N)C[C@@H](F)C5)cc(OC)c43)cn2)n1` [Example 369, (3R,5R)-1-{2-[1-(cyclopropylmethyl)-1H-pyrrolo[2,3-b]pyridin-2-yl]-7-methoxy-1-{[1-(6-methoxypyridin-2-yl)-1H-pyrazol-4-yl]methyl}-1H-1,3-benzodiazole-5-carbonyl}-5-fluoropiperidin-3-amine], the IC50 turned out to be 0.029 µM.

As to `COc1cc(C(=O)N2C[C@H]3CC[C@@H]2[C@@H]3N)cc2nc(-c3cc4ccccc4n3CC3CC3)n(Cc3cc(C)nn3C)c12` [Example 252, (1R,4R,7R)-2-{2-[1-(cyclopropylmethyl)-1H-indol-2-yl]-1-[(1,3-dimethyl-1H-pyrazol-5-yl)methyl]-7-methoxy-1H-1,3-benzodiazole-5-carbonyl}-2-azabicyclo[2.2.1]heptan-7-amine], the concentration for half-maximal inhibition (IC50) is 0.022 µM.

Consider `COc1cc(C(=O)N2CCC[C@@H](N)C2)cc2nc(-c3cc4cccnc4n3CC3CC3)n(CC3CN(C(=O)c4ccccc4)C3)c12` [Example 413, (3R)-1-{1-[(1-benzoylazetidin-3-yl)methyl]-2-[1-(cyclopropylmethyl)-1H-pyrrolo[2,3-b]pyridin-2-yl]-7-methoxy-1H-1,3-benzodiazole-5-carbonyl}piperidin-3-amine], for which the IC50 was 0.263 µM.

`COc1cc(C(=O)N2C[C@H]3CC[C@@H]2[C@@H]3N)cc2nc(-c3cc4ccccc4n3C)n(CC3CN(c4cncc(C#N)c4)C3)c12` [Example 22, 5-[3-({5-[(1R,4R,7R)-7-amino-2-azabicyclo[2.2.1]heptane-2-carbonyl]-7-methoxy-2-(1-methyl-1H-indol-2-yl)-1H-1,3-benzodiazol-1-yl}methyl)azetidin-1-yl]pyridine-3-carbonitrile]: the half-inhibitory concentration (IC50) amounted to 0.06 µM.

In the case of `COc1cc(C(=O)N2C[C@H](N)CC[C@@H]2C)cc2nc(-c3cc4ccccc4n3CC3CC3)n(Cc3cnn(C)c3)c12` [Example 251, ((2S,5R)-5-amino-2-methylpiperidin-1-yl)(2-(1-(cyclopropylmethyl)-1H-indol-2-yl)-7-methoxy-1-((1-methyl-1H-pyrazol-4-yl)methyl)-1H-benzo[d]imidazol-5-yl)methanone], the IC50 stood at 0.048 µM.

Regarding `COc1cc(C(=O)N2C[C@H]3CC[C@@H]2[C@@H]3N)cc2nc(-c3cc4cccnc4n3CC3CC3)n(C3CN(c4cnc(C#N)nc4)C3)c12` [Example 75, 5-(3-{5-[(1R,4R,7R)-7-amino-2-azabicyclo[2.2.1]heptane-2-carbonyl]-2-[1-(cyclopropylmethyl)-1H-pyrrolo[2,3-b]pyridin-2-yl]-7-methoxy-1H-1,3-benzodiazol-1-yl}azetidin-1-yl)pyrimidine-2-carbonitrile], the half-inhibitory concentration (IC50) was 0.216 µM.

With `COc1cncc(-n2cc(Cn3c(-c4cc5cccnc5n4CC4CC4)nc4cc(C(=O)N5CC6CCC5[C@@H]6N)cc(OC)c43)cn2)c1` (stereo partly drawn) [Example 352, (7R)-2-{2-[1-(cyclopropylmethyl)-1H-pyrrolo[2,3-b]pyridin-2-yl]-7-methoxy-1-{[1-(5-methoxypyridin-3-yl)-1H-pyrazol-4-yl]methyl}-1H-1,3-benzodiazole-5-carbonyl}-2-azabicyclo[2.2.1]heptan-7-amine], the concentration for half-maximal inhibition (IC50) is 0.019 µM.

For `COc1cc(C(=O)N2C[C@H]3CC[C@@H]2[C@@H]3N)cc2nc(-c3cc4cccnc4n3CC3CC3)n(C[C@@H]3CCN(c4cncc(C#N)c4)C3)c12` [Example 211, 5-[(3R)-3-({5-[(1R,4R,7R)-7-amino-2-azabicyclo[2.2.1]heptane-2-carbonyl]-2-[1-(cyclopropylmethyl)-1H-pyrrolo[2,3-b]pyridin-2-yl]-7-methoxy-1H-1,3-benzodiazol-1-yl}methyl)pyrrolidin-1-yl]pyridine-3-carbonitrile], the IC50 was found to be 0.08 µM.

`CCS(=O)(=O)N1CC(Cn2c(-c3cc4cccnc4n3CC3CC3)nc3cc(C(=O)N4CC5CCC4[C@@H]5N)cc(OC)c32)C1` (stereo partly drawn) [Example 336, (1R,4R.,7R)-2-{2-[1-(cyclopropylmethyl)-1H-pyrrolo[2,3-b]pyridin-2-yl]-1-{[1-(ethanesulfonyl)azetidin-3-yl]methyl}-7-methoxy-1H-1,3-benzodiazole-5-carbonyl}-2-azabicyclo[2.2,1]heptan-7-amine]: the half-maximal inhibitory concentration (IC50) was 0.31 µM.

Take `N[C@@H]1[C@@H]2CC[C@H]1N(C(=O)c1cc(Cl)c3c(c1)nc(-c1cc4cccnc4n1CC1CC1)n3CC1CN(C(=O)c3ccccc3)C1)C2` [Example 89, (3-((5-((1R,4R,7R)-7-amino-2-azabicyclo[2.2.1]heptane-2-carbonyl)-7-chloro-2-(1-(cyclopropylmethyl)-1H-pyrrolo[2,3-b]pyridin-2-yl)-1H-benzo[d]imidazol-1-yl)methyl)azetidin-1-yl)(phenyl)methanone]: the IC50 came to 0.041 µM.
